Ends that are not written are not given here.
Legend:
A. baumannii ATCC19606 = assay: Outer membrane permeabilization (NPN uptake) assay; format: cell-based, Acinetobacter baumannii; settings: peptides at MIC, compared to untreated control and polymyxin B
Method: (§1) FIG. 3. Synergy, resistance development and mechanism of action studies of encrypted peptides. […] (FIG. 3B) Evolution of resistance by A. baumannii to encrypted peptides derived from the CUB domain (red) or polymyxin B (gray) after 30 days of serial passaging in liquid nutrient broth. Peptides and antibiotics were used at sub-inhibitory concentrations. Cells were passaged every 48 h. […] (FIG. 3D) Cytoplasmic membrane depolarization effects of the encrypted peptides against A. baumannii. (FIG. 3E) NPN assays showing the effect of encrypted peptides derived from the CUB domain and natriuretic peptide on permeabilization of the outer membrane of A. baumannii.
In order to investigate the mode of action of encrypted peptides against bacterial cells, assays were performed to study their effects on the bacterial membrane. First, the ability of encrypted peptides to disrupt and depolarize the bacterial cytoplasmic membrane was assessed […]. 3,3′-dipropylthiadicarbocyanine iodide [DiSC3(5)] was used, a potentiometric fluorophore that accumulates and aggregates in the cytoplasmic membrane, quenching its fluorescence. Upon imbalances of the cytoplasmic membrane transmembrane potential, the fluorophore migrates to the cytoplasm or the outer environment, generating fluorescence. […]
Methods: Membrane depolarization assays. The cytoplasmic membrane depolarization activity of the peptides was determined by measurements of fluorescence of the membrane potential-sensitive dye, DiSC3(5). […] Thereafter, the cells (100 μL) were incubated for 15 min with 20 nmol L^−1 of DiSC3(5) until a stable reduction of fluorescence was achieved, indicating the incorporation of the dye into the bacterial membrane. Membrane depolarization was then monitored by observing the change in the fluorescence emission intensity of the membrane potential-sensitive dye, DiSC3(5) (λex=622 nm, λem=670 nm), after the addition of peptides (100 μL solution at MIC values). […] The membrane permeability of the peptides was determined by using the N-phenyl-1-napthylamine (NPN) uptake assay. […]

P. aeruginosa PAO1 = assay: Outer membrane permeabilization (NPN uptake) assay; format: cell-based, Pseudomonas aeruginosa; settings: peptides at MIC
Method: (§2) FIG. 10. Membrane permeabilization and depolarization assays for several bacterial strains. […] FIG. 10B: Cytoplasmic membrane depolarization assays performed against P. aeruginosa PAO1 and the gut commensal B. fragilis ATCC25285.
(§3) Methods: Membrane depolarization assays. The cytoplasmic membrane depolarization activity of the peptides was determined by measurements of fluorescence of the membrane potential-sensitive dye, DiSC3(5). Briefly, A. baumannii ATCC19606, P. aeruginosa PAO1 and B. fragilis ATCC25285 were grown at 37° C. with agitation until they reached mid-log phase (OD600=0.5). […] Thereafter, the cells (100 μL) were incubated for 15 min with 20 nmol L^−1 of DiSC3(5) until a stable reduction of fluorescence was achieved, indicating the incorporation of the dye into the bacterial membrane. Membrane depolarization was then monitored by observing the change in the fluorescence emission intensity of the membrane potential-sensitive dye, DiSC3(5) (λex=622 nm, λem=670 nm), after the addition of peptides (100 μL solution at MIC values). […] The membrane permeability of the peptides was determined by using the N-phenyl-1-napthylamine (NPN) uptake assay. […] The background fluorescence was recorded at λex=350 nm and λem=420 nm. […]

B. fragilis ATCC25285 = assay: Outer membrane permeabilization (NPN uptake) assay; format: cell-based, Bacteroides fragilis; settings: peptides at MIC
Method: as §2, §3

S. epidermidis = assay: Outer membrane permeabilization (NPN uptake) assay; format: cell-based, Staphylococcus epidermidis; settings: peptides at MIC
Method: as §2, §3

A. baumannii = assay: Bacterial resistance development assay (serial passaging); format: cell-based, Acinetobacter baumannii; settings: after 26 days of serial passaging at sub-inhibitory concentrations
Method: as §1
In any antibiotic discovery effort, it is crucial to assess how readily the molecules identified select for resistance mechanisms in bacteria, as the emergence of resistance has hampered the antibiotic field since its very inception with the discovery of penicillin in 1928^38. To determine whether bacteria become resistant to encrypted peptides, longitudinal resistance assays were performed with peptides derived from the CUB domains 1 and 3 against A. baumannii, using polymyxin B as a control (FIG. 3B).
Methods: Bacterial resistance development assays. The evolution of resistance by A. baumannii cells to encrypted peptides was monitored for 30 days of serial passaging in liquid nutrient broth. […]

Substance	outer membrane permeabilization (NPN fluorescence) (A. baumannii ATCC19606)	outer membrane permeabilization (NPN) (P. aeruginosa PAO1)	outer membrane permeabilization (NPN) (B. fragilis ATCC25285)	outer membrane permeabilization (NPN) (S. epidermidis)	increase of concentrations needed to kill A. baumannii (A. baumannii)
natriuretic peptide: peptide hormone responsible for inducing the excretion of sodium by the kidneys (P01160) (SLRRSSCFGGRMDRIGAQSGLGCNSFRY; ends and bridges not checked; cysteine pairing not given here; UniProt P01160 124-151, looked up)	increased fluorescence	permeabilized	permeabilized	permeabilized	–
polymyxin B	–	–	–	–	≤ 256 fold
